Source: PubChem BioAssay AID328 (DTP/NCI, 2004)
Several values for one entry are separate records, joined by “and”; a condition that tells them apart may be missing. Identical values can stand only once. Inconclusive results and toxic doses are left out. Starred links: 1 amine or outer side, 2 acyl side, 3 side chain; linkers in the order of their positions; H or OH if unused. Positions of bridges follow the written chain, without caps; N, C: chain ends. Non-standard residues stand in square brackets, D forms with d. Residues, ends and D or L forms follow the SMILES beside them. Chains are numbered I, II in the order given. Actinocin(9to1) = Cc1c2oc3c(C)ccc(C(=O)[*:1])c3nc-2c(C(=O)[*:2])c(N)c1=O; NMeV = CN[CH](C(=O)O)C(C)C; Aze = O=C(O)[CH]1CCN1; Sar = CNCC(=O)O

System: BDF1 mice, P388 leukemia ip, median survival T/C
Experiment: NCI In Vivo Anticancer Drug Screen. Data for tumor model P388 Leukemia (intraperitoneal) in B6D2F1 (BDF1) mice
Conditions: endpoint: median survival time, higher = longer survival
Procedure, shortened: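 Transplantable tumour in mice; compound vs vehicle dosing; survival scored; ratio of treated to control reported.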

[1] = dose: 100.0 mg/kg/injection, schedule: Q01DX001 (ip), vehicle: Klucel (hydroxypropylcellulose) (HPC)
[2] = dose: 200.0 mg/kg/injection, schedule: Q01DX001 (ip), vehicle: Klucel (hydroxypropylcellulose) (HPC)
[3] = dose: 400.0 mg/kg/injection, schedule: Q01DX001 (ip), vehicle: Klucel (hydroxypropylcellulose) (HPC)
[4] = dose: 75.0 mg/kg/injection, schedule: Q01DX009 (ip), vehicle: Klucel (hydroxypropylcellulose) (HPC)
[5] = dose: 100.0 mg/kg/injection, schedule: Q01DX009 (ip), vehicle: saline with Tween-80
[6] = dose: 200.0 mg/kg/injection, schedule: Q01DX009 (ip), vehicle: saline with Tween-80
[7] = dose: 100.0 mg/kg/injection, schedule: Q01DX009 (ip), vehicle: saline
[8] = dose: 200.0 mg/kg/injection, schedule: Q01DX009 (ip), vehicle: saline
[9] = dose: 400.0 mg/kg/injection, schedule: Q01DX009 (ip), vehicle: saline

SMILES: Cc1ccc2nc(-c3ccc(CSC(=N)N)cc3)oc(=O)c2c1
- T/C (dose: 0.78 mg/kg/injection, schedule: Q01DX009 (ip), vehicle: saline with Tween-80): 96 % of control
- T/C (dose: 1.56 mg/kg/injection, schedule: Q01DX009 (ip), vehicle: saline with Tween-80): 99 % of control
- T/C (dose: 3.12 mg/kg/injection, schedule: Q01DX009 (ip), vehicle: saline with Tween-80): 96 % of control

SMILES: COc1ccc(C(=O)C(C)C(O)(C(F)(F)F)C(F)(F)F)cc1 (stereo not given)
- T/C [1]: 109 % of control
- T/C [2]: 109 % of control
- T/C [3]: 109 % of control

SMILES: COc1cc2c(cc1OC)C1CNC(=O)C1C(c1ccccc1)C2 (stereo not given)
- T/C (dose: 50.0 mg/kg/injection, schedule: Q01DX001 (ip), vehicle: Klucel (hydroxypropylcellulose) (HPC)): 100 % of control
- T/C [1]: 95 % of control
- T/C [2]: 100 % of control
- T/C [3]: 96 % of control

SMILES: O=C(Nc1ccccc1)Nn1cnc2ccccc2c1=O
- T/C (dose: 100.0 mg/kg/injection, schedule: Q04DX003 (ip), vehicle: saline with Tween-80): 90 % of control
- T/C (dose: 200.0 mg/kg/injection, schedule: Q04DX003 (ip), vehicle: saline with Tween-80): 100 % of control
- T/C (dose: 400.0 mg/kg/injection, schedule: Q04DX003 (ip), vehicle: saline with Tween-80): 100 % of control

SMILES: Cc1c2oc3c(C)ccc(C(=O)NC4C(=O)NC(C(C)C)C(=O)N5CCC5C(=O)N(C)CC(=O)N(C)C(C(C)C)C(=O)OC4C)c3nc-2c(C(=O)NC2C(=O)NC(C(C)C)C(=O)N3CCC3C(=O)N(C)CC(=O)N(C)C(C(C)C)C(=O)OC2C)c(N)c1=O (stereo not given) (I: TV[Aze][Sar][NMeV] / II: TV[Aze][Sar][NMeV]; ester I:1-I:C, II:1-II:C; linker I:N-II:N via Actinocin(9to1); configuration not given here)
- T/C (dose: 0.26 mg/kg/injection, schedule: Q04DX003 (ip), vehicle: saline): 226 % of control
- T/C (dose: 0.4 mg/kg/injection, schedule: Q04DX003 (ip), vehicle: saline): 180 % of control
- T/C (dose: 0.6 mg/kg/injection, schedule: Q04DX003 (ip), vehicle: saline): 319 % of control
- T/C (dose: 12.5 micrograms/kg/injection, schedule: Q01DX009 (ip), vehicle: saline + alcohol): 190 % of control
- T/C (dose: 25.0 micrograms/kg/injection, schedule: Q01DX009 (ip), vehicle: saline + alcohol): 197 % of control
- T/C (dose: 50.0 micrograms/kg/injection, schedule: Q01DX009 (ip), vehicle: saline + alcohol): 239 % of control
- T/C (dose: 75.0 micrograms/kg/injection, schedule: Q01DX009 (ip), vehicle: saline + alcohol): 237 % of control
- T/C (dose: 100.0 micrograms/kg/injection, schedule: Q01DX009 (ip), vehicle: saline + alcohol): 260 % of control
- T/C (dose: 112.5 micrograms/kg/injection, schedule: Q01DX009 (ip), vehicle: saline + alcohol): 274 % of control
- T/C (dose: 150.0 micrograms/kg/injection, schedule: Q01DX009 (ip), vehicle: saline + alcohol): 274 % of control
- T/C (dose: 150.0 micrograms/kg/injection, schedule: Q04DX003 (ip), vehicle: saline + alcohol): 218 % of control
- T/C (dose: 200.0 micrograms/kg/injection, schedule: Q01DX009 (ip), vehicle: saline + alcohol): 166 % of control
- T/C (dose: 216.0 micrograms/kg/injection, schedule: Q04DX003 (ip), vehicle: saline + alcohol): 207 % of control
- T/C (dose: 225.0 micrograms/kg/injection, schedule: Q01DX009 (ip), vehicle: saline + alcohol): 108 % of control
- T/C (dose: 225.0 micrograms/kg/injection, schedule: Q04DX003 (ip), vehicle: saline + alcohol): 212 % of control
- T/C (dose: 300.0 micrograms/kg/injection, schedule: Q01DX009 (ip), vehicle: saline + alcohol): 113 % of control
- T/C (dose: 360.0 micrograms/kg/injection, schedule: Q04DX003 (ip), vehicle: saline + alcohol): 225 % of control
- T/C (dose: 450.0 micrograms/kg/injection, schedule: Q04DX003 (ip), vehicle: saline + alcohol): 238 % of control and 336 % of control
- T/C (dose: 900.0 micrograms/kg/injection, schedule: Q04DX003 (ip), vehicle: saline + alcohol): 88 % of control and 117 % of control
- T/C (dose: 1000.0 micrograms/kg/injection, schedule: Q04DX003 (ip), vehicle: saline + alcohol): 97 % of control
- T/C (dose: 1200.0 micrograms/kg/injection, schedule: Q04DX003 (ip), vehicle: saline + alcohol): 102 % of control

SMILES: O=c1[nH]c(=O)[nH]c(=O)[nH]1
- T/C [4]: 120 % of control
- T/C (dose: 150.0 mg/kg/injection, schedule: Q01DX009 (ip), vehicle: Klucel (hydroxypropylcellulose) (HPC)): 120 % of control
- T/C (dose: 300.0 mg/kg/injection, schedule: Q01DX009 (ip), vehicle: Klucel (hydroxypropylcellulose) (HPC)): 110 % of control

SMILES: N#Cc1c(Cl)c(Cl)c(OC(=O)c2ccc(Cl)c(Cl)c2)c(Cl)c1Cl
- T/C (dose: 50.0 mg/kg/injection, schedule: Q01DX009 (ip), vehicle: saline with Tween-80): 117 % of control
- T/C [5]: 108 % of control
- T/C [6]: 94 % of control

SMILES: O=C(O)C1C2CCCCC21 (stereo not given)
- T/C [5]: 109 % of control
- T/C [7]: 113 % of control
- T/C [6]: 100 % of control
- T/C [8]: 109 % of control
- T/C (dose: 400.0 mg/kg/injection, schedule: Q01DX009 (ip), vehicle: saline with Tween-80): 95 % of control
- T/C [9]: 104 % of control

SMILES: Cc1ccc(OCC(O)CN2CCN(c3ccc(Cl)cc3)CC2)cc1 (stereo not given)
- T/C (dose: 100.0 mg/kg/injection, schedule: Q04DX003 (ip), vehicle: saline sonified): 100 % of control
- T/C (dose: 200.0 mg/kg/injection, schedule: Q04DX003 (ip), vehicle: saline sonified): 100 % of control
- T/C (dose: 400.0 mg/kg/injection, schedule: Q04DX003 (ip), vehicle: saline sonified): 100 % of control

SMILES: CCOC(=O)CCCc1ccc(N=NN(C)C)cc1
- T/C (dose: 150.0 mg/kg/injection, schedule: Q04DX003 (ip), vehicle: saline): 95 % of control

SMILES: COc1ccc(/C(C#N)=C\c2ccnc3ccccc23)cc1
- T/C (dose: 12.5 mg/kg/injection, schedule: Q01DX009 (ip), vehicle: other): 89 % of control
- T/C (dose: 25.0 mg/kg/injection, schedule: Q01DX009 (ip), vehicle: other): 93 % of control
- T/C (dose: 50.0 mg/kg/injection, schedule: Q01DX009 (ip), vehicle: other): 90 % of control
- T/C (dose: 200.0 mg/kg/injection, schedule: Q01DX009 (ip), vehicle: other): 100 % of control

SMILES: Nc1[nH]c(=S)[nH]c(=O)c1N
- T/C [4]: 115 % of control
- T/C [1]: 95 % of control
- T/C [2]: 95 % of control

SMILES: C/C=C(\C)C(=O)OC1C(C)C2(O)C(C=C(CO)CC3(O)C(=O)C(C)=CC32)C2C(C)(C)C12OC(=O)CCCCCCCCC (stereo not given)
- T/C (dose: 0.01 mg/kg/injection, schedule: Q01DX009 (ip), vehicle: gum acacia): 98 % of control
- T/C (dose: 0.01 mg/kg/injection, schedule: Q01DX009 (ip), vehicle: saline + alcohol): 90 % of control
- T/C (dose: 0.01 mg/kg/injection, schedule: Q01DX009 (ip), vehicle: saline with Tween-80): 118 % of control
- T/C (dose: 0.02 mg/kg/injection, schedule: Q01DX009 (ip), vehicle: gum acacia): 93 % of control
- T/C (dose: 0.03 mg/kg/injection, schedule: Q01DX009 (ip), vehicle: Klucel (hydroxypropylcellulose) (HPC)): 110 % of control
- T/C (dose: 0.03 mg/kg/injection, schedule: Q01DX009 (ip), vehicle: gum acacia): 111 % of control
- T/C (dose: 0.03 mg/kg/injection, schedule: Q01DX009 (ip), vehicle: saline + alcohol): 93 % of control and 108 % of control
- T/C (dose: 0.06 mg/kg/injection, schedule: Q01DX009 (ip), vehicle: Klucel (hydroxypropylcellulose) (HPC)): 112 % of control
- T/C (dose: 0.06 mg/kg/injection, schedule: Q01DX009 (ip), vehicle: saline + alcohol): 90 % of control and 108 % of control
- T/C (dose: 0.12 mg/kg/injection, schedule: Q01DX009 (ip), vehicle: Klucel (hydroxypropylcellulose) (HPC)): 112 % of control
- T/C (dose: 0.25 mg/kg/injection, schedule: Q01DX009 (ip), vehicle: Klucel (hydroxypropylcellulose) (HPC)): 112 % of control
- T/C (dose: 0.25 mg/kg/injection, schedule: Q01DX009 (ip), vehicle: saline + alcohol): 163 % of control
- T/C (dose: 0.5 mg/kg/injection, schedule: Q01DX009 (ip), vehicle: Klucel (hydroxypropylcellulose) (HPC)): 119 % of control
- T/C (dose: 1.0 mg/kg/injection, schedule: Q01DX009 (ip), vehicle: Klucel (hydroxypropylcellulose) (HPC)): 91 % of control

SMILES: BrC1C2CC(c3ccccc32)C1Br (stereo not given)
- T/C (dose: 100.0 mg/kg/injection, schedule: Q01DX001 (ip), vehicle: saline): 109 % of control
- T/C [7]: 100 % of control
- T/C (dose: 100.0 mg/kg/injection, schedule: Q04DX003 (ip), vehicle: saline): 100 % of control
- T/C (dose: 200.0 mg/kg/injection, schedule: Q01DX001 (ip), vehicle: saline): 104 % of control
- T/C [8]: 104 % of control
- T/C (dose: 200.0 mg/kg/injection, schedule: Q04DX003 (ip), vehicle: saline): 91 % of control
- T/C (dose: 400.0 mg/kg/injection, schedule: Q01DX001 (ip), vehicle: saline): 100 % of control
- T/C [9]: 109 % of control
- T/C (dose: 400.0 mg/kg/injection, schedule: Q04DX003 (ip), vehicle: saline): 104 % of control
